According to the supplement of paper PMC5412046:
Counter-ions that a name gives are not always drawn.

How the values were obtained:
SB.mhdgc-1 [1] = experiment: area under the dose-response curve of % viability (trapezoidal, 11 doses) (% viability x log10 concentration); higher = less cytotoxic; conditions: SB.mhdgc-1 (hereditary c.1380delA CDH1 gastric cancer)
In short: (§1)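 Patient-derived gastric cancer cells, hereditary or sporadic, were plated at 500 cells in 5 μL medium per well of a 1536-well plate and given 23 nL of compound in DMSO by pintool across 11 threefold dilutions. The top concentration was recorded for each compound. After 48 h, CellTiter-Glo was added for 30 min at room temperature and luminescence was read on a ViewLux. Values are viability normalised to DMSO, taken either at the highest concentration or as trapezoidal area under the curve.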

SB.msgc-1 [2] = experiment: as above; conditions: SB.msgc-1 (sporadic gastric cancer)
In short: as §1

SB.mhdgc-1 [3] = experiment: viability at highest tested concentration (MAXR) relative to DMSO; higher = less cytotoxic; conditions: SB.mhdgc-1 (hereditary c.1380delA CDH1 gastric cancer)
In short: as §1

SB.msgc-1 [4] = experiment: as above; conditions: SB.msgc-1 (sporadic gastric cancer)
In short: as §1

SMILES | area under the dose-response curve (SB.mhdgc-1 [1]) | area under the dose-response curve (SB.msgc-1 [2]) | viability (SB.mhdgc-1 [3]) [%] | viability (SB.msgc-1 [4]) [%]
CCC[C@@H]1C[C@@H](C(=O)N[C@@H]([C@H]2O[C@H](SC)[C@H](O)[C@@H](O)[C@H]2O)[C@@H](C)O)N(C)C1.Cl [Lincomycin  hydrochloride] (top concentration 46.0829 µM) | 525 | 548 | 85.3 | 94
CC(=O)NC[C@H]1CN(c2ccc(N3CCOCC3)c(F)c2)C(=O)O1 [Linezolid] (top concentration 46.0829 µM) | 596 | 565 | 108 | 101
Cc1ccc(F)c(NC(=O)Nc2ccc(-c3cccc4[nH]nc(N)c34)cc2)c1 [Linifanib] (top concentration 46.0829 µM) | 479 | 498 | 18.9 | 26.4
O=C1N(c2ccccc2)c2ccccc2C1(Cc1ccncc1)Cc1ccncc1 [Linopirdine] (top concentration 46.0829 µM) | 369 | 540 | 5.06 | 57.2
C[C@]1(O)CC(C1)C2=NC(=C3[N]2C=CN=C3N)C4=CC5=C(C=C4)C=CC(=N5)C6=CC=CC=C6 (stereo not drawn) [Linsitinib] (top concentration 46.0829 µM) | 475 | 448 | 31.5 | 35.1
COc1cccc(N(C)C(=S)Oc2ccc3c(c2)CCCC3)n1 [Liranaftate] (top concentration 46.0829 µM) | 517 | 507 | 90.5 | 73.7
C[S+](=O)([O-])Oc1ccc2c(NC(N)=O)c(C(=O)c3ccc(Cl)cc3Cl)oc2c1 [Lirimilast] (top concentration 46.0829 µM) | 461 | 424 | 66.1 | 8
CCN1\C=C(C(O)=O)/C(=O)C2=C1C(=C(N3CCNC(C)C3)C(=C2)F)F (stereo not drawn) [Lomefloxacin hydrochloride] (top concentration 46.0829 µM) | 517 | 515 | 124 | 101
CC1CCC(C(=O)N(c2cc(C#CC(C)(C)C)sc2C(=O)O)C2CCC(O)CC2)CC1 (stereo not drawn) [Lomibuvir] (top concentration 46.0829 µM) | 408 | 481 | 73.3 | 27.4
O=NN(CCCl)C(=O)NC1CCCCC1 [Lomustine] (top concentration 46.0829 µM) | 551 | 513 | 125 | 70.4
NC(=O)N1CCC(CC(=O)N2CCC([C@H]3c4ncc(Br)cc4CCc4cc(Cl)cc(Br)c43)CC2)CC1 [Lonafarnib] (top concentration 46.0829 µM) | 518 | 406 | 0.687 | -0.76
O=C(O)c1nn(Cc2ccc(Cl)cc2Cl)c2ccccc12 [Lonidamine] (top concentration 46.0829 µM) | 443 | 461 | 87.9 | 82.3
CN(C)C(=O)C(CCN1CCC(O)(c2ccc(Cl)cc2)CC1)(c1ccccc1)c1ccccc1 [Loperamide hydrochloride] (top concentration 46.0829 µM) | 450 | 525 | 5.88 | 70.5
Cc1cccc(C)c1OCC(=O)N[C@@H](Cc1ccccc1)[C@@H](O)C[C@H](Cc1ccccc1)NC(=O)[C@H](C(C)C)N1CCCNC1=O [Lopinavir] (top concentration 46.0829 µM) | 453 | 497 | 53.2 | 53.2
CN1\C(=C(O)/C2=C(C=C(Cl)S2)[S+]1([O-])=O)C(=O)NC3=NC=CC=C3 [Lornoxicam] (top concentration 46.0829 µM) | 490 | 454 | 55.5 | 33.4
CCOC(=O)O[C@]1(C(=O)OCCl)CC[C@H]2[C@@H]3CCC4=CC(=O)C=C[C@]4(C)[C@H]3[C@@H](O)C[C@@]21C [Loteprednol etabonate] (top concentration 46.0829 µM) | 493 | 520 | 92.8 | 110
CC[C@H](C)C(=O)O[C@H]1C[C@@H](C)\C=C2\C=C/[C@H](C)[C@H](CC[C@@H]3C[C@@H](O)CC(=O)O3)[C@@H]12 [Lovastatin] (top concentration 46.0829 µM) | 460 | 351 | 38.2 | 39.6
CCCCC(F)(F)[C@@]1(O)CC[C@H]2[C@@H](CC(=O)[C@@H]2CCCCCCC(=O)O)O1 [Lubiprostone] (top concentration 46.0829 µM) | 513 | 495 | 57.7 | 40.1
Cc1ccc(NC(=O)C2(c3ccc4c(c3)OC(F)(F)O4)CC2)nc1-c1cccc(C(=O)O)c1 [Lumacaftor] (top concentration 46.0829 µM) | 396 | 211 | 37.7 | 25.3
CCCCN(CCCC)CC(O)c1cc(Cl)cc2c1-c1ccc(Cl)cc1/C2=C/c1ccc(Cl)cc1 (stereo not drawn) [Lumefantrine] (top concentration 46.0829 µM) | 560 | 476 | 12 | 60.5
C=C(C)[C@@H]1CC[C@]2(C)CC[C@]3(C)[C@H](CC[C@@H]4[C@@]5(C)CC[C@H](O)C(C)(C)[C@@H]5CC[C@]43C)[C@@H]12 [Lupeol] (top concentration 46.0829 µM) | 609 | 522 | 134 | 108
O=c1cc(-c2ccc(O)c(O)c2)oc2cc(O)cc(O)c12 [Luteolin] (top concentration 46.0829 µM) | 442 | 572 | 42.6 | 86.9
